Assay results from patent publication US20230052893A1, “A SYNERGISTIC BACTERICIDE AND BACTERIOSTATIC ORGANIC SANITIZING/DISINFECTANT/CLEANING FORMULATION” (UNIVERSIDAD DE CONCEPCIÓN, priority 2020, published 2023).

Experiments:
Botrytis cinerea = assay: Inhibition of conidia germination; format: cell-based; settings: 24 hours
Experimental: (§1) In summary 100 μl of inoculum suspension was added into 96 wells in plates, using the following concentrations: 0.037-14.8% w/v acetate buffer and 0.043-17.31% w/v propionate buffer; 100 μl water (fungus) or culture medium (bacteria) and 10 μl of inoculum suspension at a final concentration of 1×10^5 UFC/ml. An incubation of 24 hours at ±25° C. was performed, assays was made by triplicate. The antimicrobial effect was evaluated as follows: B. cinerea, a germinated conidia counting was made; and P. syringae, a minimal inhibitory concentration (MIC) was firstly made through presence/absence of turbidity, and from the concentrations in absence of turbidity 100 μl was taken to be transferred to a culture medium without the antimicrobial formulation and an incubation of 24 hours at room temperature was carried out to assay the minimal bactericide concentration (MBC).

[1] = system: E. coli ATCC 25932, L. monocytogenes ATCC 19115; Staphylococcus aureus ATCC 6538P, Salmonella enterica ATCC 13076; assay: MIC-MBC in planktonic cells, the four pathogens together; format: cell-based; settings: buffer used alone; range over the four pathogens; 18-20 hrs exposure
Experimental: The efficacy of the formulation was evaluated through minimal inhibitory concentration (MIC) and minimal bactericide concentration (MBC) against pathogens E. coli ATCC 25932, L. monocytogenes ATCC 19115; Staphylococcus aureus ATCC 6538P, Salmonella enterica ATCC 13076. […] The range of disinfectant concentrations was 0.037-5.17% w/v to acetate buffer and 0.043-6.06% w/v to propionate buffer. These concentrations are obtained from a stock solution which is diluted with filtered water.

[2] = system: Staphylococcus aureus ATCC 6538P biofilm; assay: CDC biofilm reactor, biofilm on stainless steel coupons; format: cell-based; settings: 250 ppm, 30 minutes contact
Experimental: (§2) Tests on bacterial biofilms were also made to the pathogen strains, which were performed as follows: stainless steel coupons (type 316) were washed, installed on a support within a glass vessel and autoclaved at 121° C. by 20 minutes. To evaluate the disinfectant effect over a stablished biofilm to each separate bacteria, 3 ml of a concentration of 0.5 Mc Farland was inoculated within a vessel and then the same was incubated by 6, 12, 24 and 48 hours at 16° C. After each time of incubation supports containing coupons were removed and transferred to Falcon tubes of 50 ml containing the present synergistic disinfectant formulation at the following concentrations, DS1: 15% w/v (ratio acetate:propionate, 6.86:1) and DS2: 35% w/v (ratio acetate:propionate, 6.86:1). Peracetic acid was used (PAA) as control at concentrations of 250 ppm, the contact with the present synergistic disinfectant formulation or peracetic acid with supports containing biofilms was kept by 30 minutes. To perform a counting, an aliquot was taken, seeded into trypticase agar and incubated at 30° C. by 24 h, finally a counting of adhered cells was made. FIGS. 1 to 4 showing bacteria concentrations obtained to different times after 30 minutes of treatment using the above mentioned disinfectant formulations and peracetic acid as control to the following pathogens: L. monocytogenes ATCC 19115 (FIG. 1); E. coli ATCC 25932 (FIG. 2), Salmonella enterica ATCC 13076.L. (FIG. 3); and Staphylococcus aureus ATCC 6538P (FIG. 4).

[3] = system: Salmonella enterica ATCC 13076 biofilm; assay: as above; format: cell-based; settings: 250 ppm, 30 minutes contact
Experimental: as §2

[4] = system: E. coli ATCC 25932 biofilm; assay: as above; format: cell-based, Escherichia coli; settings: 250 ppm, 30 minutes contact
Experimental: as §2, with “FIGS. 1 to 4 showing bacteria concentrations obtained to different times after 30 minutes of treatment using the above mentioned disinfectant formulations and peracetic acid as control to the following pathogens: L. monocytogenes ATCC 19115 (FIG. 1); E. coli ATCC 25932 (FIG. 2), Salmonella enterica ATCC 13076.L. (FIG. 3); and Staphylococcus aureus ATCC 6538P (FIG. 4).” left out

[5] = system: L. monocytogenes ATCC 19115 biofilm; assay: as above; format: cell-based, Listeria monocytogenes; settings: 250 ppm, 30 minutes contact
Experimental: as §2, with “FIGS. 1 to 4 showing bacteria concentrations obtained to different times after 30 minutes of treatment using the above mentioned disinfectant formulations and peracetic acid as control to the following pathogens: L. monocytogenes ATCC 19115 (FIG. 1); E. coli ATCC 25932 (FIG. 2), Salmonella enterica ATCC 13076.L. (FIG. 3); and Staphylococcus aureus ATCC 6538P (FIG. 4).” left out

[6] = system: mesophyll aerobics and enterobacteria; assay: Disinfectant effect on non-inoculated meats, the 3 types of meats together; settings: 2.5% Sodium Acetate; different meats, during test days
Experimental: Assays to evaluate antimicrobial effect on the surface of beef, chicken meat and salmon meat was performed. […] The growth of bacteria Escherichia coli was allowed in a TSB culture medium by 24 h at 35° C.
Disinfecting effect on a total mesophyll aerobic and enterobacteria microorganism counting was evaluated to initial non inoculated (E. coli) meat. Also, a concentration of 10^1 UFC/g of E. coli was inoculated and then the disinfectant effect was evaluated on such pathogen microorganism counting.
Meat (beef, chicken and salmon) was purchased the same date in which the assay was arranged and was kept under storing conditions at 4° C. up to using the same. Prior to initiating assays pieces of 5 grams, pieces were randomly selected to each treatment, and a) pieces were independently inoculated with 0.2 ml of culture comprising the above mentioned bacteria by separate and 2 ml was applied to the treatments to be defined below or b) pieces were only chopped and 2 ml of treatment was applied:
Meat pieces (inoculated or non-inoculated) with its respective treatments was transferred to tubes of 50 mL under conditions of sterility and stored at 4° C. up to its final evaluation. Assays were made by triplicate.
Antimicrobial activity evaluation was performed to 0, 3, 8 and 12 post-treatment days. […] Colonies were counted at 24 and 48 hours, depending the medium to be used to the counting.

Pseudomonas syringae = assay: MIC and MBC against agronomical pest; format: cell-based; settings: buffer alone; 24 hours
Experimental: as §1

pathogen disease = assay: Disease incidence in inoculated fruits, 21-days aged fruits (fruit not stated)
Description: Fruits having similar, size, form and color and having no visual damage by fungi were selected. To perform assays a 1-2 mm deep wound was made on the selected fruit by a needle and 10^5 UFC/ml B. cinerea and Penicillium spp. (to different samples, independent test) were inoculated through the same wound under sterility conditions, fruits was not disinfected prior to the inoculation procedures. Assays was made by triplicate on 6 units submitted to visual inspection during the treatment, which were equidistantly located therebetween in Petri plates of 100×15 mm and exposed to a disinfectant treatment (Different proportions and concentrations) spraying on the fruit 0.2 ml of the different synergistic proportion of the formulation, finally an incubation at 4° C. was allowed.
Four acetate/propionate mixtures (proportions) were tested, 17.2:1, 6.86:1, 1.72:1 and 0.043:1; for each of them two or three concentrations were tested. Treatments: Treatment A/Treatment 1: 3.38% w/v mixture acetate/propionate buffers. Treatment B/Treatment 2: 11.25% w/v mixture acetate/propionate buffers. Treatment C: 25% w/v mixture acetate/propionate buffers. Treatment D/Negative Control: Fruits with wound immersed in water. […]
Assays were evaluated to days 0 (control), 7, 14 and 21, a counting of fruits showing pathogen signs was made to determined incidence. […]

CCC(=O)O [Propionate, propionate buffer]
inhibition at 2.6 % strength (Botrytis cinerea; Botrytis cinerea, Propionate 2.6 % w/v): 5.6%
inhibition at 6.06 % strength (Botrytis cinerea; Botrytis cinerea, Propionate 6.06 % w/v): 18.1%
inhibition at 8.65 % strength (Botrytis cinerea; Botrytis cinerea, Propionate 8.65 % w/v): 21.2%
Concentration needed by separate to eliminate the pathogens (MBC) [1]: 0.43-3.46 % w/v

CC(=O)OO [peracetic acid]
Elimination of biofilm ([2]; 24-hours aged biofilms): fully eliminate
Reduction of biofilm ([2]; biofilm after 6 and 12 hours): completely reduced
Elimination of biofilm ([3]; 24-hours aged biofilms): fully eliminate
Reduction of biofilm ([3]; biofilm after 6 and 12 hours): completely reduced
Elimination of biofilm ([4]; 24-hours aged biofilms): fully eliminate
Reduction of biofilm ([4]; biofilm after 6 and 12 hours): completely reduced
Elimination of biofilm ([5]; 24-hours aged biofilms): fully eliminate
Reduction of biofilm ([5]; biofilm after 6 and 12 hours): completely reduced

CC(=O)[O-].[Na+] [sodium acetate, Sodium Acetate]
Aerobic mesophilic and enterobacterial counts [6]: close to the negative control

acetate buffer
Inhibition of germination (%) (Botrytis cinerea; Acetate 2.22 % w/v, adjusted mortality media): 0.3%
Inhibition of germination (%) (Botrytis cinerea; Acetate 5.17 % w/v): 7.4%
Inhibition of germination (%) (Botrytis cinerea; Acetate 7.4 % w/v): 8.1%
Concentration needed by separate to eliminate the pathogens (MBC) [1]: 0.74-3.69 % w/v
MBC (Pseudomonas syringae): 3.69 % w/v

benzalkonium chloride
Time for which pathogen disease / incidence is inhibited (pathogen disease): 42 days
